Data on one molecule can be found in US20140130208A1, “METHODS AND MEANS TO PRODUCE ABIOTIC STRESS TOLERANT PLANTS” (VIB VZW, priority 2011, published 2014).

Each structure is given as a SMILES string.

The test system of assay [1] is Arabidopsis thaliana leaf 3. Put plainly: Leaf 3 area of ACC deaminase transgenic lines and wild type after 48 hours on mild mannitol stress. It is filed as in vivo. As to conditions: wild type of the pGRF5::bACD experiment; 48 hours on 25 mM mannitol. The text has this: In this experiment we aimed for a downregulation of the ethylene signaling pathway only in proliferating leaf cells (chimeric genes with 2 different meristematic promoters: p4TM1 and pGR5) as compared to a downregulation of the ethylene signaling in the entire plant (chimeric gene with the […] promoter). The transgene which was used for downregulation of the ethylene signaling was the ACC deaminase (a bacterial form and a plant form), an enzyme that degrades the ethylene precursor ACC. […]
Plant were transferred to plates containing 25 mM mannitol, hereby exposing them to mild mannitol stress, at a stage where the third leaf is fully proliferating, allowing to study the response of proliferating leaf cells to stress. After 48 hours on mild mannitol stress, leaf 3 was microdissected and its size was measured to calculate the extent of growth inhibition. […]
The plant growth and stress set-up was the same as previously described (Skirycz et al (2011) Plant Cell 23: 1876-1888). […] Slides were photographed, and leaf area was measured using ImageJ 1.41o.

Assay [2] has as its system proliferating leaf primordia transcriptome. Put plainly: ATH1 whole-genome transcript profiling of proliferating leaf primordia. It is filed as in vivo, Arabidopsis thaliana. From the text: To obtain a better understanding of the molecular mechanisms inhibiting cell division during stress, we subjected proliferating leaf primordia to whole-genome transcript profiling. […] Selected microarray data could be validated with a nCounter platform containing probes for 100 genes involved in growth, stress, and hormonal regulation. Differential transcripts were used to construct Venn diagrams and were subjected to k-means clustering. […] Subsequently, the differential transcripts were examined with PageMan to calculate the functional overrepresentation of MapMan categories (Thimm et al., 2004; Usadel et al., 2006) and were compared to selected publicly available microarray experiments (see “Materials and Methods”). To explain the reduced cell proliferation rates, cell cycle genes were among the prime suspects. […] Strikingly, the magnitude of change for all of the above-mentioned cell cycle genes was similar (approximately 30%) and occurred only at 24 h (FIG. 6A). Besides the cell cycle-related transcripts, we were particularly interested in genes related to hormonal signaling.
Leaf 3 was harvested from plants at 1.5, 3, 12, and 24 h. Briefly, whole seedlings were harvested in an excess of RNAlater solution (Ambion) and, after overnight storage at 4° C., dissected under a binocular microscope on a cooling plate with precision microscissors. Dissected leaves were transferred to a new tube, frozen in liquid nitrogen, and ground with a Retsch machine and 3-mm metal balls. Samples were obtained from three independent biological experiments and from multiple plates within the experiment.
RNA was extracted with TriZol (Invitrogen) according to the manufacturer's instructions with 4 μg of glycogen as carrier during the precipitation step. RNA samples were subjected to DNA digestion with RNase-free DNase I (Roche) and subsequently cleaned up with the RNeasy Mini Kit (Qiagen).
RNA samples were hybridized to single Affymetrix ATH1 Genome arrays at the VIB Microarray Facility (Leuven, Belgium). Expression data were processed with Robust Multichip Average (RMA) (background correction, normalization, and summarization) as implemented in BioConductor (Irizarry et al., 2003a, 2003b; Gentleman et al., 2004). An alternative cdf (“tinesath1cdf”) was used, in which each probe is uniquely assigned to one transcript (Casneuf et al., 2007) (http://www.bioconductor.org/packages/release/data/experiment/html/tinesath1cdf.html). The BioConductor package Limma was used to identify differentially expressed genes (Smyth, 2004). For comparisons of interest, moderated t statistics were calculated using the eBayes function and P values were corrected for multiple testing for each contrast separately using topTable. False-discovery rate (FDR)-corrected p-value<0.05 was used as a cut-off (Benjamini and Hochberg, 1995).

Where [3] appears, read: 1.5 h after transfer to 25 mM mannitol.
Where [4] appears, read: 3 h after transfer to 25 mM mannitol.
Setting [5] is: 12 h after transfer to 25 mM mannitol.
Setting [6] is: 24 h after transfer to 25 mM mannitol.

For `OC[C@@H](O)[C@@H](O)[C@H](O)[C@H](O)CO` [mannitol], the “growth inhibition of leaf 3 area” value in assay [1] is listed as “about 10%”. In addition, the “number of down-regulated transcripts” value in assay [2] (setting [3]) was determined as 31; in assay [2] (setting [4]), 145; in assay [2] (setting [5]) it was 84; in assay [2] (setting [6]), 622. Moreover, the “number of up-regulated transcripts” value in assay [2] (setting [3]) is on record as 27; in assay [2] (setting [4]), 189; in assay [2] (setting [5]) it was 351; in assay [2] (setting [6]) it was 886. For the same molecule, the “magnitude of change (down-regulation) of cell cycle genes” value in assay [2] (24 h after stress onset) is on record as “approximately 30%”.
